This is an account of results in patent US9057727B2, “Screening methods using G-protein coupled receptors and related compositions” (The General Hospital Corporation, priority 2007, dated 2015).

Square brackets hold non-standard residues; d marks the D form. Ends that are not written are not given here. hArg = N=C(N)NCCCC[C@H](N)C(=O)O; Aib = CC(C)(N)C(=O)O

Holding throughout (format): in vivo
Experiment [1] can be described thus: Calcemic action in normal rats (blood ionized calcium). The conditions noted are these: normal and TPTX rats. The method, boiled down: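 Female SD-IGS rats, 8 weeks old, dosed intravenously at 1 ml/kg with peptides in PC-buffer (pH 5.0), 6 per group. Tail-vein blood ionized calcium corrected to pH 7.4 at baseline and 1, 2, 4, 6 h. Time course versus vehicle as mean ± SE.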

The nature of experiment [2]: Bone structural parameters after two-week daily treatment in mice (Piximus, microCT). As to the method: FIG. 31 is a set of images showing the effects of two-week daily treatment of R^0 and RG ligands on trabecular and cortical bone structure in mice. Mice (C57BL/6, males, 3 months) were treated (i.v.) with either vehicle, rPTH(1-34) (SEQ ID NO:130), M-PTH(1-34) (SEQ ID NO:12), or E^18,A^22,L^25,K^26 (EALK)PTHrP(1-30) (SEQ ID NO:90) (5 nmol/kg; n=7 group), daily for 14 days, and femurs were analyzed by μCT.
As described above, mice were treated intravenously) with either vehicle, rPTH(1-34), M-PTH(1-34), or EALK-PTHrP(1-30) daily for 14 days.

The nature of experiment [3]: Bone turnover markers (PINP, osteocalcin, CTX) in mice, daily treatment. The settings on record: 5 nmol/kg i.v. daily, days 6 and 13. On the procedure: FIGS. 30A-30F are graphs showing the effects of PTH analogs on plasma bone markers in mice. Mice (C57BL/6, males, 3 months) were intravenously injected daily with either vehicle, rPTH(1-34) (SEQ ID NO:130), M-PTH(1-34) (SEQ ID NO:12), or (EALK)-PTHrP(1-30) (SEQ ID NO:90) (5 nmol/kg; n=7 group) for 14 days. Markers of bone turnover (PINP, CTX and osteocalcin) were assessed by ELISA in blood at day 6 (FIGS. 30A, 30C, and 30E, respectively) and 13 (FIGS. 30B, 30D, and 30F, respectively).
A second set of experiments was performed in which mice received 5 nmol/kg intravenous daily treatment with rPTH(1-34), M-PTH(1-34), or EALK-PTHrP(1-30) for 14 days. Blood samples were taken at days 6 and 13, and markers of bone turnover (PINP, osteocalcin and CTX) were assessed by ELISA.

Experiment [4] in a line: Blood ionized calcium in C57BL/6 mice after intravenous injection. The settings on record: 5 nmol/kg i.v. On the procedure:
FIGS. 29A and 29B are graphs showing the effect of R^0 and RG selective PTH analogs on plasma cAMP and calcium in mice. FIGS. 29A and 29B show plasma cAMP concentrations in mice (C57BL/6, males, 3 months) that were administered either vehicle, rPTH(1-34) (SEQ ID NO:130), M-PTH(1-34) (M=A^1,Aib^3,Q^10,Har^11,A^12,W^14,R^19) (SEQ ID NO:12), or E^18,A^22,L^25,K^26-(EALK)-PTHrP(1-30) (SEQ ID NO:90) (5 nmol/kg; n=7 for cAMP, n=4 for calcium) intravenously. […] In the calcium experiment, blood was withdrawn before, and 1, 2, 4 and 6 hours after injection, and ionized calcium was measured using a Ca^++/pH analyzer.
We also characterized the effects of the EALK-PTHrP(1-30) peptide on cAMP production. Three month old male C57BL/6 mice were intravenously injected with either vehicle, rPTH(1-34), M-PTH(1-34) (M=A^1,Aib^3,Q^10,Har^11,A^12,W^14,R^19) or E^18,A^22,L^25,K^26-(EALK)-PTHrP(1-30) (5 nmol/kg). In the cAMP experiment (FIG. 29A), blood was withdrawn 10 minutes after injection and plasma level of cAMP was measured by RIA. In the calcium experiment (FIG. 29B), blood was withdrawn prior to injection and 1, 2, 4, and 6 hours after injection. Ionized calcium was measured using a Ca^++/pH analyzer.

Regarding “Ala^1,Aib^3-[M]PTH(1-34) (AV[Aib]EIQLMHQ[hArg]AKWLNSMRRVEWLRKKLQDVHNF) [M-PTH(1-34), M=A1,Aib3,Q10,Har11,A12,W14,R19]”, the “calcemic action compared with control peptides, in words” value in experiment [1] is “higher calcemic actions than did PTH(1-34)”. Further, the “Lumbar Spine BMD” value in experiment [2] (Piximus, mice, 5 nmol/kg i.v. daily 14 days) is reported as 0.0524 ± 0.0002 g/cm^2. In addition, the “effect on trabecular/cortical bone and BMD, in words” value in experiment [2] (mice, 5 nmol/kg i.v. daily 14 days) is recorded as “robustly increased trabecular bone, but also detectably diminished cortical bone”. Also, in experiment [2] (microCT distal femur), the Conn-Dens. is on record as 263 ± 25 1/mm^3, the “Cort Th.” value stood at 166 ± 6 μm, the “Tb · N” value is given as 5.22 ± 0.34 1/mm and the “Tb · Th” value is 71.5 ± 1.8 μm. In experiment [2] (microCT distal femur), this substance returned a TbSp of 208 ± 17 μm and a TrabecularBV/TV of 35.0 ± 3.0%. In addition, in experiment [2] (microCT mid femur), the BA came to 0.837 ± 0.022 mm^2, the BA/TA is 40.0 ± 0.8%, the “Cort Th.” value is 151 ± 3 μm and the MA came out at 1.26 ± 0.04 mm^2. Also, in experiment [2] (microCT mid femur), the TA amounted to 2.10 ± 0.06 mm^2. Further, the “effect on bone turnover markers, in words” value in experiment [3] is on record as “strongly induced increases in markers of both bone formation”. The “ionized calcium response, in words” value in experiment [4] was “markedly more robust and more sustained than that of PTH(1-34)”.
